The record followed here is US4261977A, “Streptomycetal antibiotic” (Beecham Group Limited, priority 1975, dated 1981).

Structures can show the parent of a compound that is named as a salt.

In one series the test system is Proteus morganii I580. In words: Antibacterial activity, microtitre method (Table 2). It counts as cell-based. The note with it: heavy inoculum. On the procedure: (§1) The antibacterial activity of the material produced as above was determined by the microtitre method using the overnight inoculum of the test organism at 0.2% concentration. The synergistic activity of the di-sodium salt of MM 17880 in combination with ampicillin and with cephaloridine against Klebsiella aerogenes and Staphylococcus aureus Russell are shown in Table 3.
(§2) Microtitre heavy inoculum

Series [1] concerns Streptococcus pyogenes CN10. The series is described as above. The series is classed as cell-based. Particulars: heavy inoculum. The method, then: as §1, §2
Another series has as its system Streptococcus faecalis I. The series is described as above. It counts as cell-based. Particulars: heavy inoculum. On the procedure:
as §1, §2

Series [2] is described as follows: Stability of salts and unsalted acid. It counts as physicochemical. The note with it: salts compared with unsalted acid; in solution.
For series [3], the system named is gram-positive and gram-negative organisms. Kind of series: Antibacterial activity determined by the microtiter method (general statement). It counts as cell-based. Particulars: substantially pure di-sodium salt, certain gram-positive and gram-negative organisms.
A further series concerns Klebsiella aerogenes. In words: Activity by conventional hole in plate method on agar. The series is classed as cell-based. The note with it: yellow solid after cellulose chromatography; arbitrary units. On the procedure: 300 ml. of 10% Pluronic L81 in soya-bean oil was added to prevent foaming. The fermentation was harvested after 48 hours and clarified by centrifugation. The clarified brew was arbitarily assigned an activity of 340 units/ml when assayed by the conventional hole in plate method on agar seeded with Klebsiella aerogenes.

Series [4] deals with β-lactamase producing strains of Staphylococcus aureus and Klebsiella aerogenes. Kind of series: Synergy with β-lactam antibiotics (general statement). It counts as cell-based. The note with it: substantially pure di-sodium salt; with ampicillin, amoxycillin and the like; certain bacteria.

With `CC(=O)NCCSC1=C(C(=O)O)N2C(=O)C(C(C)OS(=O)(=O)O)C2C1` (stereo not shown) [MM 17880], the MIC – broadly, the least concentration at which growth counts as inhibited – in the series on Proteus morganii I580 was 1.6 µg/mL; in series [1], less than 0.04 µg/mL; with Streptococcus faecalis I, 6.2 µg/mL. Also, the stability entry in series [2] was “tends to decompose in solution”.

Regarding `CC(=O)NCCSC1=C(C(=O)O)N2C(=O)C(C(C)OS(=O)(=O)O)C2C1` (stereo not shown) [di-sodium salt of MM 17880], the antibacterial activity result in series [3] is on record as “good level of antibacterial activity”. In addition, the activity in the series on Klebsiella aerogenes is 16,000 units/mg. In addition, in series [4], the “synergy with β-lactam antibiotics” value is given as “able to synergyse the anti-bacterial activity of β-lactam antibiotics”.
